Results as given in publication PMC9271048, “Probing strigolactone perception mechanisms with rationally designed small-molecule agonists stimulating germination of root parasitic weeds” (Nature Communications, 2022).
pIC50: −log10 of the molar value.

System: ShHTLs (10 HTL proteins in S. hermonthica)
Experiment: YLG-based competition assay on HTL proteins of S. hermonthica
Format: biochemical, Striga hermonthica
Details: ShHTL5; average of 3 replicates; Supplementary Fig. 27; read-out: IC50, average
Source text: In P. aegyptiaca, 5 KAI2s have been proposed as the SL receptors for the regulation of seed germination. […] The high sequence similarity may explain the consistency of these compounds in inducing germination in both S. hermonthica and P. aegyptiaca.
The excitation and emission wavelengths of YLG are 480 and 520 nm, respectively. We used a fluorescence spectrophotometer (CARY Eclipse) to detect the fluorescence intensity change of YLG during the enzymatic hydrolysis assay process. All the testing compounds and YLG were dissolved in DMSO and prepared as stock solutions just before use. […] The changes of fluorescence at 520 nm of each well were recorded every 1 min for 30 min. Using the reaction mixture without adding enzyme and tested compounds as the background control. After subtracting the background hydrolysis, a linear fluorescence increase in 8 min was used for further inspection. The IC50 values were determined via fitting relative inhibition percentages with the varying concentrations of compounds in Microsoft Excel.
Supplementary Fig. 27. Binding of compounds 4a, (R)- and (S)-4a, and 4g-i to the HTL proteins in S. hermonthica and KAI2 protein homologs in P. aegyptiaca. In the competitive inhibitory activity assay, YLG (3 µM) was used as the fluorogenic substrate. Error bar indicates SD (n = 3 biologically independent experiments).
(1 picture or pasted object on this page, not shown here)

| Structure (SMILES) | pIC50 |
| --- | --- |
| CC1=CC(OC(=O)N2CCN(C(=O)COc3ccc(Br)cc3C)CC2)N(C)C1=O (stereo not drawn) [4h] | 4.42 |

Same assay, conditions: ShHTL6; YLG competition; Supplementary Fig. 27; read-out: IC50, replicate 1

| Structure (SMILES) | pIC50 |
| --- | --- |
| CC1=CC(OC(=O)N2CCN(C(=O)COc3ccc(Br)cc3C)CC2)N(C)C1=O (stereo not drawn) [4h] | < 4.00 |

Same assay, conditions: ShHTL6; YLG competition; Supplementary Fig. 27; read-out: IC50, replicate 2

| Structure (SMILES) | pIC50 |
| --- | --- |
| CC1=CC(OC(=O)N2CCN(C(=O)COc3ccc(Br)cc3C)CC2)N(C)C1=O (stereo not drawn) [4h] | < 4.00 |

Same assay, conditions: ShHTL6; YLG competition; Supplementary Fig. 27; read-out: IC50, replicate 3

| Structure (SMILES) | pIC50 |
| --- | --- |
| CC1=CC(OC(=O)N2CCN(C(=O)COc3ccc(Br)cc3C)CC2)N(C)C1=O (stereo not drawn) [4h] | < 4.00 |

Same assay, conditions: ShHTL6; average of 3 replicates; Supplementary Fig. 27; read-out: IC50, average

| Structure (SMILES) | pIC50 |
| --- | --- |
| CC1=CC(OC(=O)N2CCN(C(=O)COc3ccc(Br)cc3C)CC2)N(C)C1=O (stereo not drawn) [4h] | < 4.00 |

Same assay, conditions: ShHTL8; YLG competition; Supplementary Fig. 27; read-out: IC50, replicate 1

| Structure (SMILES) | pIC50 |
| --- | --- |
| CC1=CC(OC(=O)N2CCN(C(=O)COc3ccc(Br)cc3C)CC2)N(C)C1=O (stereo not drawn) [4h] | 4.18 |

Same assay, conditions: ShHTL8; YLG competition; Supplementary Fig. 27; read-out: IC50, replicate 2

| Structure (SMILES) | pIC50 |
| --- | --- |
| CC1=CC(OC(=O)N2CCN(C(=O)COc3ccc(Br)cc3C)CC2)N(C)C1=O (stereo not drawn) [4h] | 4.09 |

Same assay, conditions: ShHTL8; YLG competition; Supplementary Fig. 27; read-out: IC50, replicate 3

| Structure (SMILES) | pIC50 |
| --- | --- |
| CC1=CC(OC(=O)N2CCN(C(=O)COc3ccc(Br)cc3C)CC2)N(C)C1=O (stereo not drawn) [4h] | 4.09 |

Same assay, conditions: ShHTL8; average of 3 replicates; Supplementary Fig. 27; read-out: IC50, average

| Structure (SMILES) | pIC50 |
| --- | --- |
| CC1=CC(OC(=O)N2CCN(C(=O)COc3ccc(Br)cc3C)CC2)N(C)C1=O (stereo not drawn) [4h] | 4.12 |

Same assay, conditions: ShHTL9; YLG competition; Supplementary Fig. 27; read-out: IC50, replicate 1

| Structure (SMILES) | pIC50 |
| --- | --- |
| CC1=CC(OC(=O)N2CCN(C(=O)COc3ccc(Br)cc3C)CC2)N(C)C1=O (stereo not drawn) [4h] | < 4.00 |

Same assay, conditions: ShHTL9; YLG competition; Supplementary Fig. 27; read-out: IC50, replicate 2

| Structure (SMILES) | pIC50 |
| --- | --- |
| CC1=CC(OC(=O)N2CCN(C(=O)COc3ccc(Br)cc3C)CC2)N(C)C1=O (stereo not drawn) [4h] | < 4.00 |

Same assay, conditions: ShHTL9; YLG competition; Supplementary Fig. 27; read-out: IC50, replicate 3

| Structure (SMILES) | pIC50 |
| --- | --- |
| CC1=CC(OC(=O)N2CCN(C(=O)COc3ccc(Br)cc3C)CC2)N(C)C1=O (stereo not drawn) [4h] | < 4.00 |

Same assay, conditions: ShHTL9; average of 3 replicates; Supplementary Fig. 27; read-out: IC50, average

| Structure (SMILES) | pIC50 |
| --- | --- |
| CC1=CC(OC(=O)N2CCN(C(=O)COc3ccc(Br)cc3C)CC2)N(C)C1=O (stereo not drawn) [4h] | < 4.00 |

Same assay, conditions: ShHTL10; YLG competition; Supplementary Fig. 27; read-out: IC50, replicate 1

| Structure (SMILES) | pIC50 |
| --- | --- |
| CC1=CC(OC(=O)N2CCN(C(=O)COc3ccc(Br)cc3C)CC2)N(C)C1=O (stereo not drawn) [4h] | 4.32 |

Same assay, conditions: ShHTL10; YLG competition; Supplementary Fig. 27; read-out: IC50, replicate 2

| Structure (SMILES) | pIC50 |
| --- | --- |
| CC1=CC(OC(=O)N2CCN(C(=O)COc3ccc(Br)cc3C)CC2)N(C)C1=O (stereo not drawn) [4h] | 4.38 |

Same assay, conditions: ShHTL10; YLG competition; Supplementary Fig. 27; read-out: IC50, replicate 3

| Structure (SMILES) | pIC50 |
| --- | --- |
| CC1=CC(OC(=O)N2CCN(C(=O)COc3ccc(Br)cc3C)CC2)N(C)C1=O (stereo not drawn) [4h] | 4.38 |

Same assay, conditions: ShHTL10; average of 3 replicates; Supplementary Fig. 27; read-out: IC50, average

| Structure (SMILES) | pIC50 |
| --- | --- |
| CC1=CC(OC(=O)N2CCN(C(=O)COc3ccc(Br)cc3C)CC2)N(C)C1=O (stereo not drawn) [4h] | 4.36 |

Same assay, conditions: ShHTL11; YLG competition; Supplementary Fig. 27; read-out: IC50, replicate 1

| Structure (SMILES) | pIC50 |
| --- | --- |
| CC1=CC(OC(=O)N2CCN(C(=O)COc3ccc(Br)cc3C)CC2)N(C)C1=O (stereo not drawn) [4h] | < 4.00 |

Same assay, conditions: ShHTL11; YLG competition; Supplementary Fig. 27; read-out: IC50, replicate 2

| Structure (SMILES) | pIC50 |
| --- | --- |
| CC1=CC(OC(=O)N2CCN(C(=O)COc3ccc(Br)cc3C)CC2)N(C)C1=O (stereo not drawn) [4h] | < 4.00 |

Same assay, conditions: ShHTL11; YLG competition; Supplementary Fig. 27; read-out: IC50, replicate 3

| Structure (SMILES) | pIC50 |
| --- | --- |
| CC1=CC(OC(=O)N2CCN(C(=O)COc3ccc(Br)cc3C)CC2)N(C)C1=O (stereo not drawn) [4h] | < 4.00 |

Same assay, conditions: ShHTL11; average of 3 replicates; Supplementary Fig. 27; read-out: IC50, average

| Structure (SMILES) | pIC50 |
| --- | --- |
| CC1=CC(OC(=O)N2CCN(C(=O)COc3ccc(Br)cc3C)CC2)N(C)C1=O (stereo not drawn) [4h] | < 4.00 |
